Marks after values point to notes of the source that are not given here.
Key:
Format in all cases: cell-based
[1] = tested on: in vivo fertilized mouse eggs; experiment: Completion of meiosis (2PB extrusion) under Ca2+ chelation and cytoskeleton inhibitors
Description: (§1) F1 (C57B16×CBA) mouse females were superovulated and oocytes and zygotes recovered as described previously^44. Parthenogenetic activation was performed by incubating eggs for 4 hrs in M2 medium without Ca^2+/Mg^2+ supplemented with 10 mM SrCl2. Germinal vesicle (GV) oocytes were isolated from ovaries to M2 medium supplemented with 150 μg/ml dibutyryl cyclic AMP (dbcAMP). Epididymal sperm was isolated from F1 males and capacitated in 0.5 ml of fertilization medium with 4 mg/ml BSA^45. Embryos were imaged in KSOM medium as described previously^44. In some experiments prior to imaging embryos were pre-incubated for 20 min with 30 μM BAPTA-AM (to chelate Ca^2+), 5 μg/ml nocodazole (to depolimerize microtubules), 2 μg/ml cytochalasin D (to depolimerize F-actin), 10 μM taxol (to stabilize microtubules) or 100 nM jasplakinolide (to stabilize F-actin) and then transferred to pure KSOM (BAPTA-treated embryos) or to KSOM containing the respective drug (rest of the treated embryos). Embryos treated with ML-7 (to inhibit myosin light chain kinase (MLCK) and therefore myosin II activation^46) were pre-incubated with 25 μM ML-7 for 20 mins and then imaged in a dish containing KSOM with 25 μM ML-7 without a mineral oil overlay which would have absorbed ML-7.
(§2) In most experiments zygotes were imaged in a single plane under an inverted confocal microscope (Zeiss LSM 510 Meta) at 37.5° C. and 5% CO2. DIC images were captured every 10 s using a 633 nm HeNe laser. To measure free Ca^2+ ion concentration, embryos were pre-incubated for 20 min in 5 μM FuraRed-AM (Invitrogen) and FuraRed and DIC images were obtained simultaneously with a 488 nm argon laser. In experiments in which correlations between cytoplasmic movements and developmental potential of the embryos were examined zygotes were imaged in a single plane in transmitted light under standard non-confocal microscopes (Zeiss Axiovert or Deltavision) every 10 s for 2.5 hrs. In experiments in which cytoplasmic movements in the cortex and central parts of zygotes were compared embryos were imaged on the Deltavision microscope in 11 planes every 6 μm, every 10 s for 3 hrs. Intensity of FuraRed fluorescence was measured using ImageJ software. Images were analyzed using custom written software in MATLAB (The Mathworks Inc., Natick, Mass., USA) using algorithms adapted from MatPIV v1.6.1^47. The algorithm was based on that used in PIV, a standard analysis technique used extensively in fluid dynamics^21-24 that involves cross-correlating image sub-regions between sequential pairs of images. In the PIV analysis each image was divided into square interrogation regions and the cross-correlation coefficient distribution was calculated within a larger region in the next image in the sequence. The peak of the cross-correlation coefficient distribution gave the most likely location in the second image of the material in the interrogation region in the first image. This was then used to calculate the displacement vector over the time between images (FIG. 1A). As the displacement of the pattern of contrast of an area of pixels is being measured over many pixels it is possible to accurately measure sub-pixel movements with this technique^22, 24, 48.

[2] = tested on: fertilized mouse eggs; experiment: Formation and maintenance of the fertilization cone (FC) in inhibitor-treated zygotes
Description: as §1, §2

[3] = tested on: fertilized mouse eggs; experiment: PIV analysis of cytoplasmic movements (speed-peaks, after-movements, basal speed) in inhibitor-treated zygotes; details: for Mean amplitude of after-movements +/- s.d. / Mean amplitude of speed-peaks +/- s.d.: inhibitor-treated zygotes; for decrease in basal speed: vs control zygotes
Description: as §1, §2
DIC images of fertilized eggs were analyzed using custom written software in MATLAB (The Mathworks Inc., Natick, Mass., USA) using algorithms adapted from MatPIV v1.6.150. The algorithm was based on that used in PIV, a standard analysis technique that involves the use of pattern matching techniques based on cross-correlating sub-regions between sequential pairs of images (see Methods in the main text and FIG. 1a). To calculate a displacement for each analysed interrogation region two subsequent PIV iterations were used. First, the displacement was calculated for a larger interrogation area and then it was used as an estimate of where to centre the search area for the next iteration with a smaller interrogation region. […]

[4] = tested on: mouse zygotes; experiment: Immunostaining of microtubules and actomyosin in treated zygotes
Description: To examine a correlation between cytoplasmic movements and developmental potential of the embryos, 10 μl of capacitated sperm suspension was added to eggs surrounded by cumulus cells and then gametes were co-incubated for 2 hrs. In experiments testing specificity of inhibitors or involving live imaging of actin and myosin, prior to fertilization eggs were treated shortly with acidic Tyrode's solution (pH=2.5) to remove zonas, then were mixed with approximately 1 μl of capacitated sperm suspension and incubated together for 30 min. In both cases fertilization was performed in fertilization medium supplemented with 4 mg/ml BSA^45. Embryos at 2-cell stage were transfer to oviducts of recipient F1 females mated with vasectomised males on 0.5 dpc. They were dissected on 6.5 dpc or 19.5 dpc.
Embryos were fixed in 4% PFA and permeabilised as described before^41. Embryos were scanned using an inverted confocal microscope (Zeiss LSM 510 Meta).
In more detail, embryos were fixed in 4% PFA (30 min, RT or 4° C. overnight), permeabilised with 0.2-0.5% Triton-X100 (30 min, RT) and blocked with 3% BSA or 10% FCS. Subsequently, they were stained with following antibodies and dyes: […]

[5] = tested on: mouse eggs; experiment: Cytoplasmic movements in eggs injected with heat-inactivated sperm heads (ICSI) and activated with SrCl2; details: for Mean amplitude of after-movements +/- s.d. / Mean amplitude of speed-peaks +/- s.d.: ICSI with the inactivated sperm and SrCl2 activation
Description: as §1, §2
ICSI was carried out as previously described^49 using Leica micromanipulators and Leica inverted microscope. In some experiments heat-inactivated sperm (30 min in 60° C.) was used instead of freshly isolated sperm. The sperm suspension was mixed with M2 medium containing 10% polyvinylpyrrolidone (PVP, Mr=360 kDa). Sperm were delivered into the oocytes' cytosol using a piezo micropipette-driving unit (IntraCel PMAS-CT150, PrimeTech, Japan).

[6] = tested on: mouse eggs; experiment: Cytoplasmic movements and Ca2+ transients in eggs parthenogenetically activated with SrCl2
Description: as §1
as §2, with “The peak of the cross-correlation coefficient distribution gave the most likely location in the second image of the material in the interrogation region in the first image. This was then used to calculate the displacement vector over the time between images (FIG. 1A).” left out
DIC images of fertilized eggs were analyzed using custom written software in MATLAB (The Mathworks Inc., Natick, Mass., USA) using algorithms adapted from MatPIV v1.6.150. […] To calculate a displacement for each analysed interrogation region two subsequent PIV iterations were used. First, the displacement was calculated for a larger interrogation area and then it was used as an estimate of where to centre the search area for the next iteration with a smaller interrogation region. […]

[7] = treated zygotes, control zygotes 9.0 +/- 1.9
[8] = Stage 1 prolonged, activation with SrCl2

Structure (SMILES)	Zygotes that failed to extrude 2PB (%) [1]	effect on formation and/or maintenance of the FCs [2]	effect on speed-peaks [3]	Mean amplitude of after-movements +/- s.d. ([3]; Stage 1) [nm/s]	Mean amplitude of speed-peaks +/- s.d. ([3]; Stage 1)	Mean amplitude of after-movements +/- s.d. ([3]; Stage 2)	Mean amplitude of speed-peaks +/- s.d. ([3]; Stage 2)	Mean amplitude of after-movements +/- s.d. ([3]; Stage 3)	Mean amplitude of speed-peaks +/- s.d. ([3]; Stage 3) [nm/s]	Mean basal cytoplasmic speed +/- s.d. [3, 7]	Zygotes that extruded 2PB (%) [1]	other results
CC(=O)O[C@H]1C(=O)[C@@]2(C)[C@H]([C@H](OC(=O)c3ccccc3)[C@]3(O)C[C@H](OC(=O)[C@H](O)[C@@H](NC(=O)c4ccccc4)c4ccccc4)C(C)=C1C3(C)C)[C@]1(OC(C)=O)CO[C@@H]1C[C@@H]2O [Taxol, taxol]	(100) %	had no effect upon either formation and/or maintenance of the FCs	neither nocodazole-induced depolymerisation nor taxol-induced stabilisation of microtubules inhibited speed-peaks	7.9 ± 4.3	18.0 +/− 5.0^¶ nm/s	11.1 ± 5.3 nm/s	29.9 +/− 21.0^¶ nm/s	14.3 +/− 5.8^¶ nm/s	11.5 ± 6.5	7.7 +/− 1.7^§ nm/s	–	–
CC(=O)OCOC(=O)CN(CC(=O)OCOC(C)=O)c1ccccc1OCCOc1ccccc1N(CC(=O)OCOC(C)=O)CC(=O)OCOC(C)=O [BAPTA, BAPTA-AM]	(33.3) %	–	suppressed high amplitude speed-peaks	–	–	–	–	–	–	15.3 +/− 3.3* nm/s	(66.7) %	effect on cytoskeleton by staining [4]: disrupted microtubules; elevation of mean basal cytoplasmic speed ([3]; more than controls, 21 fertilized eggs): 1.7 fold
O=S(=O)(c1cccc2c(I)cccc12)N1CCCNCC1 [ML-7]	(30.8) %	–	–	–	–	–	–	–	–	–	(69.2) %	embryos in which FCs were present ([2]; 10/17 embryos): 58.8%; zygotes in which cytoplasmic speed oscillations were blocked ([3]; 16/17 zygotes): 94.1%; Mean basal cytoplasmic speed +/- s.d. ([3]; A - mean basal velocity before M-phase/interphase transition): A. 5.1 +/− 1.3*^,‡ nm/s; Mean basal cytoplasmic speed +/- s.d. ([3]; B - mean basal velocity after M-phase/interphase transition): B. 8.3 +/− 1.1^†,‡ nm/s
C=C1[C@@H](C)[C@H]2[C@H](Cc3ccccc3)NC(=O)[C@]23[C@H](OC(C)=O)/C=C/[C@@](C)(O)C(=O)[C@@H](C)C/C=C/[C@H]3[C@@H]1O [Cytochalasin D, cytochalasin D]	(100) %	–	dramatically abolished speed-peaks	–	–	–	–	–	–	3.1 +/− 0.6* nm/s	–	zygotes in which FCs did not form ([2]; 20/21 zygotes): 95%; zygotes in which unfocused, low-amplitude speed-peaks were recorded ([3]; 2 out of 21 analyzed zygotes): 9.5%; decrease in basal speed [3]: ~3 fold
COC(=O)Nc1nc2ccc(C(=O)c3cccs3)cc2[nH]1 [Nocodazole, nocodazole]	(58.3) %	had no effect upon either formation and/or maintenance of the FCs	neither nocodazole-induced depolymerisation nor taxol-induced stabilisation of microtubules inhibited speed-peaks	11.1 ± 3.9	20.6 ± 11.2 nm/s	16.6 +/− 6.8^¶ nm/s	35.2 +/− 19.3^§ nm/s	21.5 +/− 6.7^|| nm/s	10.4 ± 8.5	11.0 +/− 1.5* nm/s	(41.7) %	–
[Cl-].[Cl-].[Sr+2] [SrCl2]	–	–	–	–	–	–	–	–	–	–	–	lag of speed-peaks and FC pulsations after peaks of Ca2+ transients [5]: 10 to 30 s; Ca2+ transients accompanied by speed-peaks ([5]; 48/79 transients, Stage 2, FCs present, n=25): 60.8%; Mean amplitude of after-movements +/- s.d. ([5]; Stage 1): 7.9 ± 3.0 nm/s; Mean amplitude of speed-peaks +/- s.d. ([5]; Stage 1): 8.8 +/− 8.8^|| nm/s; Mean amplitude of after-movements +/- s.d. ([5]; Stage 2): 10.1 +/− 3.5^#,‡‡ nm/s; Mean amplitude of speed-peaks +/- s.d. ([5]; Stage 2): 8.6 +/− 5.4^# nm/s; Mean amplitude of after-movements +/- s.d. ([5]; Stage 3): 13.0 ± 7.0 nm/s; Mean amplitude of speed-peaks +/- s.d. ([5]; Stage 3): 7.1 +/− 4.3^# nm/s; delay of speed peaks with respect to the onset of the Ca2+ transient [6]: 10 to 30 s; Ca2+ transients accompanied by speed peaks ([6]; 133/444 transients, n=47 eggs): 30%; Ca2+ transients with after-movements present ([6]; 341/444 transients): 76.8%; Mean amplitude of after-movements +/- s.d. [6, 8]: 7.7 +/− 2.9^#,** nm/s; Mean amplitude of speed-peaks +/- s.d. [6, 8]: 7.4 +/− 4.0^#,||,¶ nm/s
C/C1=C\[C@H](C)C[C@H](C)OC(=O)C[C@H](c2ccc(O)cc2)NC(=O)[C@@H](Cc2c(Br)[nH]c3ccccc23)N(C)C(=O)[C@H](C)NC(=O)[C@@H](C)C1 [Jasplakinolide, jasplakinolide]	(100) %	still permitted formation and/or maintenance of FCs	amplitudes were significantly lower than in controls	5.2 ± 2.1	20.9 ± 10.1 nm/s	4.2 +/− 1.9^|| nm/s	14.5 +/− 8.3^|| nm/s	3.8 +/− 2.8^|| nm/s	10.8 ± 7.6	3.0 +/− 0.4* nm/s	–	effect on cytoskeleton by staining [4]: formation of a thicker cortical layer of actin; decrease in basal speed [3]: ~3 fold

From patent US9410939B2, “Methods for predicting mammalian embryo viability” (Cambridge Enterprise Limited, priority 2011, dated 2016)
